The text below walks through data of patent US20200037588A1, “METHODS OF A DROSOPHILA MODEL FOR CHRONIC MYELOID LEUKEMIA (CML) TREATMENT” (American University of Beirut, priority 2018, published 2020).

Series [1] relates to GMR-GAL4>w1118 control flies. Particulars: in vivo.
For a further series, the system named is BCR-ABL1. To be noted: cited from earlier work.
For series [2], the system named is GMR-GAL4>w1118 control flies. Kind of series: Eye development of control flies fed TKI (SEM).

Like-named read-outs stand apart in the source and are kept apart here.

On to `Cc1nc(Nc2ncc(C(=O)Nc3c(C)cccc3Cl)s2)cc(N2CCN(CCO)CC2)n1` [dasatinib], for which, in series [1], the “eye development in control flies fed drug (in words)” value (“eye development” below) is listed as “Normal development”.

With `Cc1ccc(NC(=O)c2ccc(CN3CCN(C)CC3)cc2)cc1Nc1nccc(-c2cccnc2)n1` [imatinib], the “eye development” value in series [1] is listed as “Normal development”. For `Cc1cn(-c2cc(NC(=O)c3ccc(C)c(Nc4nccc(-c5cccnc5)n4)c3)cc(C(F)(F)F)c2)cn1` [nilotinib], the “eye development” value in series [1] was “Normal development”. Besides, in the series on BCR-ABL1, the “potency for BCR-AB1L inhibition in vitro compared to imatinib” value is 20 fold. Consider `Cc1ccc(C(=O)Nc2ccc(CN3CCN(C)CC3)c(C(F)(F)F)c2)cc1C#Cc1cnc2cccnn12` [ponatinib], for which the “eye development” value in series [2] is “Normal development”.
